Consider two molecules from patent US20210212946A1, “SOLID SELF-EMULSIFYING CANNABINOID COMPOSITIONS” (ICDPHARMA LTD., priority 2018, published 2021).

Molecules are shown by their SMILES.

A short description of data set [1]: Oral absorption of CBD in rats. The format is in vivo, Sprague drawly rats. The conditions noted are these: gavage to the stomach, 12 mg/kg, plasma CBD by LC-MS. The method, then:
A tablet of composition of 5A was diluted with water of about 40° C. before administration to the rats to obtain CBD concentration of 12 mg/ml and to obtain the cannabinoid oil-in-water emulsion. The emulsion was administered in gavage to the stomach of Sprague drawly rats weighing 220 gr to 250 gr at 12 mg/kg. Blood sample was obtained at various time points after the oral administration and plasma separated. The CBD concentration in the plasma was tested by LC-MS and the area under the curve calculate. Group one was administered with 12 mg/kg of pure CBD dissolved in “solvent” propylene glycol:ethanol 1:1 solution. Group two received the test formulation.

The test system of data set [2] is human lung tumors. The conditions noted are these: human lung tumors implanted into rats and mice; cited from earlier work.

In turn, `C=C(C)[C@@H]1CCC(C)=C[C@H]1c1c(O)cc(CCCCC)cc1O` [CBD, cannabidiol] yielded a Cmax in data set [1] (Sprague-Dawley, rat, po) of 38 ng/mL. Besides, the “AUC (Area Under the Curve of CBD in rats' plasma)” value in data set [1] was determined as 90 ± 12 ng/mL/h.

Take `CCCCCc1cc(O)c2c(c1)OC(C)(C)[C@@H]1CCC(C)=C[C@@H]21` [THC, tetrahydrocannabinol]: in data set [2], the “reduction in tumor mass and volume” value is on record as not above 50%; the “reduction of cancerous lesions in the lungs” value was “around 60%”.

By Cmax is commonly meant the maximum level reached in the sampled fluid or tissue.
